Measured values taken from BindingDB's records for doi:10.1021/jm020384z (Aventis Pharmaceuticals, 2003).

Experiments:
Coagulation factor X = Coagulation factor X (Homo sapiens, UniProt P00742); assay: In vitro binding affinity for human Coagulation factor X
Prothrombin = Prothrombin (Homo sapiens, UniProt P00734); assay: Binding affinity towards thrombin
Serine protease 1 = Serine protease 1 (Homo sapiens, UniProt P07477); assay: Binding affinity towards trypsin
Sequence of Serine protease 1 (P07477 whole entry): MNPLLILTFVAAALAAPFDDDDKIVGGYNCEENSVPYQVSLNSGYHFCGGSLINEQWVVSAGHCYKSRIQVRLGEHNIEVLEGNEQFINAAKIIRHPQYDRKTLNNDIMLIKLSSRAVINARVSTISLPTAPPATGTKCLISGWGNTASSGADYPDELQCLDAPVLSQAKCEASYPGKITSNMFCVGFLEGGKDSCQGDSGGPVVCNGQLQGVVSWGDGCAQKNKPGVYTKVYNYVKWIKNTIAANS

Sequence of Coagulation factor X (P00742 41-179 limits assumed): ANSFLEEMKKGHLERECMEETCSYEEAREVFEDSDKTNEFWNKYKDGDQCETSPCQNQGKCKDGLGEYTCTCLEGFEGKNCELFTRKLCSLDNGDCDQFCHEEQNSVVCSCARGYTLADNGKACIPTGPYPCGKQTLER
Sequence of Coagulation factor X (P00742 235-488 limits assumed): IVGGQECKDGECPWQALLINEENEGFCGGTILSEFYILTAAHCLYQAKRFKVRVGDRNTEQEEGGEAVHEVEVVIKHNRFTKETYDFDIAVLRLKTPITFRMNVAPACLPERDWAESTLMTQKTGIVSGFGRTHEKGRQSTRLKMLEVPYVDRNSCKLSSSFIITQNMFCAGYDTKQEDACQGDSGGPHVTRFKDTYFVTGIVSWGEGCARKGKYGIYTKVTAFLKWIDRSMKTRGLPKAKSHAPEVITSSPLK

Row | SMILES | Ki (Coagulation factor X) [nM] | Ki (Prothrombin) [nM] | Ki (Serine protease 1) [nM]
1 | O=C1CN(S(=O)(=O)c2cc3cccnc3s2)CCN1Cc1cc2cnccc2[nH]1 [1-(1H-Pyrrolo[3,2-c]pyridin-2-ylmethyl)-4-(thieno[2,3-b]pyridine-2-sulfonyl)-piperazin-2-one] | > 1200 | – | –
2 | O=C1CN(S(=O)(=O)c2cc3ncccc3s2)CCN1Cc1cc2cnccc2[nH]1 [1-(1H-Pyrrolo[3,2-c]pyridin-2-ylmethyl)-4-(thieno[3,2-b]pyridine-2-sulfonyl)-piperazin-2-one] | > 1200 | – | –
3 | O=C1CN(S(=O)(=O)c2cc3ccc(Cl)cc3s2)CCN1Cc1cc2c(=O)[nH]ccc2[nH]1 [2-[4-(6-Chloro-benzo[b]thiophene-2-sulfonyl)-2-oxo-piperazin-1-ylmethyl]-1,5-dihydro-pyrrolo[3,2-c]pyridin-4-one] | > 1200 | > 3900 | > 2900
4 | O=C1CN(S(=O)(=O)c2sc3ccccc3c2Cl)CCN1Cc1cc2cnccc2[nH]1 [4-(3-Chloro-benzo[b]thiophene-2-sulfonyl)-1-(1H-pyrrolo[3,2-c]pyridin-2-ylmethyl)-piperazin-2-one] | > 1200 | – | –

Results, then the compound that gave them:

Row | Ki (Coagulation factor X) [nM] | Ki (Prothrombin) [nM] | Ki (Serine protease 1) [nM] | SMILES
5 | > 1200 | – | – | O=C1CN(S(=O)(=O)c2ccc(-c3ccc(Cl)cc3)cc2)CCN1Cc1cc2cnccc2[nH]1 [4-(4'-Chloro-biphenyl-4-sulfonyl)-1-(1H-pyrrolo[3,2-c]pyridin-2-ylmethyl)-piperazin-2-one]
6 | > 1200 | > 3900 | > 2900 | O=C1CN(S(=O)(=O)c2cc3ccc(Cl)cc3s2)CCN1Cc1nc2ccncc2[nH]1 [4-(6-Chloro-benzo[b]thiophene-2-sulfonyl)-1-(1H-imidazo[4,5-c]pyridin-2-ylmethyl)-piperazin-2-one]
7 | > 1200 | > 3900 | > 2900 | O=C1CN(S(=O)(=O)c2cc3ccc(Cl)cc3s2)CCN1Cc1cc2ncccc2[nH]1 [4-(6-Chloro-benzo[b]thiophene-2-sulfonyl)-1-(1H-pyrrolo[3,2-b]pyridin-2-ylmethyl)-piperazin-2-one]
8 | > 1200 | – | – | COc1cc(C=CS(=O)(=O)N2CCN(Cc3cc4cnccc4[nH]3)C(=O)C2)sc1Cl [4-[2-(5-Chloro-4-methoxy-thiophen-2-yl)-ethenesulfonyl]-1-(1H-pyrrolo[3,2-c]pyridin-2-ylmethyl)-piperazin-2-one]
